Data: patent US10752609B2, “GSK-3 inhibitors” (priority 2016, dated 2020)
Like-named read-outs stand apart in the source and are kept apart here.

Legend:
[1] = tested on: pTau; experiment: pTau assay (no method described); format: cell-based
[2] = molecular target: GSK3β (Homo sapiens, UniProt P49841); experiment: GSK3β kinase assay (Caliper LabChip3000 mobility shift, fluoresceinated peptide substrate); format: biochemical
[3] = molecular target: GSK3α (Homo sapiens, UniProt P49840); experiment: GSK3α kinase assay (Caliper LabChip3000 mobility shift, fluoresceinated peptide substrate)
[4] = 250 pM enzyme, 20 uM ATP, 1.5 uM peptide, 20 hours room temperature, first value of cell GSK3β/GSK3α, read-out: GSK3β (nM), IC50

Sequence of GSK3β (P49841 whole entry, species assumed): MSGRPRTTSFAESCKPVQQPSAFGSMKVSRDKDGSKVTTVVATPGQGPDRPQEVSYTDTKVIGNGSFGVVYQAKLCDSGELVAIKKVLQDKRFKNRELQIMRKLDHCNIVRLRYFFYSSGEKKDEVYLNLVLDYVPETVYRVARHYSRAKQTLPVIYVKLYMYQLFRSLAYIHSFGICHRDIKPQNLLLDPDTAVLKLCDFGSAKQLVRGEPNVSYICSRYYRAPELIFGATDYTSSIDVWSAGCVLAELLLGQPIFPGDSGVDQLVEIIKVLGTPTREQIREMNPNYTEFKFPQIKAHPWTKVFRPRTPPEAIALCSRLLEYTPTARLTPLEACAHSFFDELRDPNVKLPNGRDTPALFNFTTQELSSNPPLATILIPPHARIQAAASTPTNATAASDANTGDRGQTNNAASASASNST
Sequence of GSK3α (P49840 whole entry, species assumed): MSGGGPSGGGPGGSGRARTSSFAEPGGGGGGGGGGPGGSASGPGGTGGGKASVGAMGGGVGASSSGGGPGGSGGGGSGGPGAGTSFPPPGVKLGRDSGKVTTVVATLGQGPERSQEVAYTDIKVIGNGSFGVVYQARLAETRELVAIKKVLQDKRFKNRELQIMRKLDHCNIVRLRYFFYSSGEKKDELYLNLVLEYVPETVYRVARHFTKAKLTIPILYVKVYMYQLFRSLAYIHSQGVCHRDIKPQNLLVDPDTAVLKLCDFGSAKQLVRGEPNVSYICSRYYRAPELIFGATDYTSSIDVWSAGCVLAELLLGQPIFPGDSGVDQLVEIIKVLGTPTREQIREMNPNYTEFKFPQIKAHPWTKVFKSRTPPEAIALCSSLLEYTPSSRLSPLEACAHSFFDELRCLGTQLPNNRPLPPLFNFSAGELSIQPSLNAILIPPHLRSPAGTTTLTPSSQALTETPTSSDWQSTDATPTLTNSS

| SMILES | IC50 [1] | IC50 [2, 4] | IC50 [3] | IC50 [2] |
| --- | --- | --- | --- | --- |
| O=C(Nc1cnccc1-c1ccccc1)c1ccnc(Nc2ccc(OC(F)(F)F)cc2)n1 [Example 12, N-(4-Phenylpyridin-3-yl)-2-((4-(trifluoromethoxy)phenyl)amino)pyrimidine-4-carboxamide] | 210 nM | 1.9 nM | 0.9 nM |  |
| O=C(Nc1cnccc1-c1ccccc1)c1ccnc(Nc2ccc(OC(F)F)cc2)n1 [Example 13, 2-((4-(Difluoromethoxy)phenyl)amino)-N-(4-phenylpyridin-3-yl)pyrimidine-4-carboxamide] | 60 nM | 0.45 nM | 0.3 nM |  |
| C[S+]([O-])c1ccc(Nc2nccc(C(=O)Nc3cnccc3-c3ccccc3)n2)cc1 (stereo not drawn) [Example 14, 2-((4-(Methylsulfinyl)phenyl)amino)-N-(4-phenylpyridin-3-yl)pyrimidine-4-carboxamide] | 14 nM | 0.39 nM | 0.18 nM |  |
| CS(=O)(=O)c1ccc(Nc2nccc(C(=O)Nc3cnccc3-c3ccccc3)n2)cc1 [Example 15, 2-((4-(Methylsulfonyl)phenyl)amino)-N-(4-phenylpyridin-3-yl)pyrimidine-4-carboxamide] | 10 nM | 0.27 nM | 0.19 nM |  |
| O=C(Nc1cnccc1-c1ccccc1)c1ccnc(Nc2ccc(-n3ccnc3)cc2)n1 [Example 16, 2-((4-(1H-Imidazol-1-yl)phenyl)amino)-N-(4-phenylpyridin-3-yl)pyrimidine-4-carboxamide] | 5700 nM | 54 nM | 36 nM |  |
| Cc1cc(Nc2nccc(C(=O)Nc3cnccc3-c3ccccc3)n2)ccc1F [Example 17, 2-((4-Fluoro-3-methylphenyl)amino)-N-(4-phenylpyridin-3-yl)pyrimidine-4-carboxamide] | 60 nM | 0.64 nM | 0.47 nM |  |
| COc1ccc(Nc2nccc(C(=O)Nc3cnccc3-c3ccccc3)n2)cc1Cl [Example 18, 2-((3-Chloro-4-methoxyphenyl)amino)-N-(4-phenylpyridin-3-yl)pyrimidine-4-carboxamide] | 37 nM | 0.23 nM | 0.32 nM |  |
| COc1ccc(Nc2nccc(C(=O)Nc3cnccc3-c3ccccc3)n2)cc1F [Example 19, 2-((3-Fluoro-4-methoxyphenyl)amino)-N-(4-phenylpyridin-3-yl)pyrimidine-4-carboxamide] | 17 nM | 0.18 nM | 0.17 nM |  |
| O=C(Nc1cnccc1-c1ccccc1)c1ccnc(Nc2ccc(C(F)(F)F)cc2Cl)n1 [Example 20, 2-((2-Chloro-4-(trifluoromethyl)phenyl)amino)-N-(4-phenylpyridin-3-yl)pyrimidine-4-carboxamide] | 5700 nM | 24 nM | 16 nM |  |
| Cc1cc(C#N)ccc1Nc1nccc(C(=O)Nc2cnccc2-c2ccccc2)n1 [Example 21, 2-((4-Cyano-2-methylphenyl)amino)-N-(4-phenylpyridin-3-yl)pyrimidine-4-carboxamide] | 97 nM | 0.43 nM | 0.35 nM |  |
| O=C(Nc1cnccc1-c1ccccc1)c1ccnc(Nc2ccc(Cl)cc2Cl)n1 [Example 23, 2-((2,4-Dichlorophenyl)amino)-N-(4-phenylpyridin-3-yl)pyrimidine-4-carboxamide] | 1600 nM | 6.2 nM | 4.8 nM |  |
| N#Cc1ccc(Nc2nccc(C(=O)Nc3cnccc3-c3ccccc3)n2)c(Cl)c1 [Example 24, 2-((2-Chloro-4-cyanophenyl)amino)-N-(4-phenylpyridin-3-yl)pyrimidine-4-carboxamide] | 170 nM | 3.8 nM | 1.6 nM |  |
| O=C(Nc1cnccc1-c1ccccc1)c1ccnc(Nc2ccc(C(F)(F)F)cc2F)n1 [Example 25, 2-((2-Fluoro-4-(trifluoromethyl)phenyl)amino)-N-(4-phenylpyridin-3-yl)pyrimidine-4-carboxamide] | 4800 nM |  | 2.2 nM | 3.3 nM |
| O=C(Nc1cnccc1-c1ccccc1)c1ccnc(Nc2ccc(Cl)cc2F)n1 [Example 26, 2-((4-Chloro-2-fluorophenyl)amino)-N-(4-phenylpyridin-3-yl)pyrimidine-4-carboxamide] | 110 nM | 0.57 nM | 0.33 nM |  |
| N#Cc1ccc(Nc2nccc(C(=O)Nc3cnccc3-c3ccccc3)n2)cc1Cl [Example 27, 2-((3-Chloro-4-cyanophenyl)amino)-N-(4-phenylpyridin-3-yl)pyrimidine-4-carboxamide] | 20 nM |  | 0.16 nM | 0.24 nM |
| N#Cc1ccc(Nc2nccc(C(=O)Nc3cnccc3-c3ccccc3)n2)cc1C(F)(F)F [Example 28, 2-((4-Cyano-3-(trifluoromethyl)phenyl)amino)-N-(4-phenylpyridin-3-yl)pyrimidine-4-carboxamide] | 170 nM |  | 0.9 nM | 1.5 nM |
| O=C(Nc1cnccc1-c1ccccc1)c1ccnc(Nc2ccc(OC(F)F)cc2Cl)n1 [Example 29, 2-((2-Chloro-4-(difluoromethoxy)phenyl)amino)-N-(4-phenylpyridin-3-yl)pyrimidine-4-carboxamide] | 1400 nM | 4.6 nM | 2.6 nM |  |

| SMILES | IC50 [1] | IC50 [2, 4] | IC50 [3] | IC50 [2] |
| --- | --- | --- | --- | --- |
| O=C(Nc1cnccc1-c1ccccc1)c1ccnc(Nc2c(F)cc(Cl)cc2F)n1 [Example 30, 2-((4-Chloro-2,6-difluorophenyl)amino)-N-(4-phenylpyridin-3-yl)pyrimidine-4-carboxamide] | 350 nM | 3.9 nM | 1.8 nM |  |
| O=C(Nc1cnccc1-c1ccccc1)c1ccnc(Nc2cc(Cl)c(Cl)cc2F)n1 [Example 31, 2-((4,5-Dichloro-2-fluorophenyl)amino)-N-(4-phenylpyridin-3-yl)pyrimidine-4-carboxamide] | 320 nM | 0.89 nM | 0.52 nM |  |
| O=C(Nc1cnccc1-c1ccccc1)c1ccnc(Nc2cc(F)c(Cl)cc2F)n1 [Example 32, 2-((4-Chloro-2,5-difluorophenyl)amino)-N-(4-phenylpyridin-3-yl)pyrimidine-4-carboxamide] | 100 nM | 0.48 nM | 0.56 nM |  |
| O=C(Nc1cnccc1-c1ccccc1)c1ccnc(Nc2cc(OC(F)F)c(Cl)cc2F)n1 [Example 33, 2-((4-Chloro-5-(difluoromethoxy)-2-fluorophenyl)amino)-N-(4-phenylpyridin-3-yl)pyrimidine-4-carboxamide] | 700 nM | 2.3 nM | 2.1 nM |  |
| O=C(Nc1cnccc1-c1ccccc1)c1ccnc(Nc2cccnc2)n1 [Example 34, N-(4-Phenylpyridin-3-yl)-2-(pyridin-3-ylamino)pyrimidine-4-carboxamide] | 46 nM | 1.2 nM | 0.69 nM |  |
| O=C(Nc1cnccc1-c1ccccc1)c1ccnc(Nc2ccncc2)n1 [Example 35, N-(4-Phenylpyridin-3-yl)-2-(pyridin-4-ylamino)pyrimidine-4-carboxamide] | 30 nM | 1.1 nM | 0.63 nM |  |
| Cc1cc(Nc2nccc(C(=O)Nc3cnccc3-c3ccccc3)n2)ccn1 [Example 36, 2-((2-Methylpyridin-4-yl)amino)-N-(4-phenylpyridin-3-yl)pyrimidine-4-carboxamide] | 36 nM |  | 0.55 nM | 0.84 nM |
| COc1cc(Nc2nccc(C(=O)Nc3cnccc3-c3ccccc3)n2)ccn1 [Example 37, 2-((2-Methoxypyridin-4-yl)amino)-N-(4-phenylpyridin-3-yl)pyrimidine-4-carboxamide] | 33 nM | 0.54 nM | 0.51 nM |  |
| O=C(Nc1cnccc1-c1ccccc1)c1ccnc(Nc2ccc(OC(F)F)nc2)n1 [Example 38, 2-((6-(Difluoromethoxy)pyridin-3-yl)amino)-N-(4-phenylpyridin-3-yl)pyrimidine-4-carboxamide] | 130 nM | 3.1 nM | 1.1 nM |  |
| O=C(Nc1cnccc1-c1ccccc1)c1ccnc(Nc2ccc(C(F)(F)F)nc2)n1 [Example 39, N-(4-Phenylpyridin-3-yl)-2-((6-(trifluoromethyl)pyridin-3-yl)amino)pyrimidine-4-carboxamide] | 470 nM | 3.4 nM | 1.5 nM |  |
| Cc1nc(OC(F)F)ccc1Nc1nccc(C(=O)Nc2cnccc2-c2ccccc2)n1 [Example 40, 2-((6-(Difluoromethoxy)-2-methylpyridin-3-yl)amino)-N-(4-phenylpyridin-3-yl)pyrimidine-4-carboxamide] | 5200 nM | 22 nM | 21 nM |  |
| Cc1cc(Nc2nccc(C(=O)Nc3cnccc3-c3ccccc3)n2)c(C)nc1OC(F)F [Example 41, 2-((6-(Difluoromethoxy)-2,5-dimethylpyridin-3-yl)amino)-I-(4-phenylpyridin-3-yl)pyrimidine-4-carboxamide] | 290 nM | 1.6 nM | 1.9 nM |  |
| CC(C)OCCCNc1nccc(C(=O)Nc2cnccc2-c2ccccc2)n1 [Example 42, 2-((3-Isopropoxypropyl)amino)-N-(4-phenylpyridin-3-yl)pyrimidine-4-carboxamide] | 93 nM | 0.88 nM | 0.59 nM |  |
| O=C(Nc1cnccc1-c1ccc(F)cc1)c1ccnc(Nc2ccccc2)n1 [Example 43, N-(4-(4-Fluorophenyl)pyridin-3-yl)-2-(phenylamino)pyrimidine-4-carboxamide] | 34 nM | 0.25 nM | 0.19 nM |  |
| O=C(Nc1cnccc1-c1ccc(F)cc1)c1ccnc(Nc2ccc(F)cc2)n1 [Example 44, 2-((4-Fluorophenyl)amino)-N-(4-(4-fluorophenyl)pyridin-3-yl)pyrimidine-4-carboxamide] | 34 nM | 0.26 nM | 0.46 nM |  |
| N#Cc1ccc(Nc2nccc(C(=O)Nc3cnccc3-c3ccc(F)cc3)n2)cc1 [Example 45, 2-((4-Cyanophenyl)amino)-N-(4-(4-fluorophenyl)pyridin-3-yl)pyrimidine-4-carboxamide] | 10 nM | 0.35 nM | 0.29 nM |  |
